From ChEMBL document CHEMBL5316325, “Design and Synthesis of 3-Hydroxy-pyridin-4(1H)-ones-Ciprofloxacin Conjugates as Dual Antibacterial and Antibiofilm Agents against Pseudomonas aeruginosa” (J Med Chem, 2023)
Values after ≈ are worked out from the molar mass of the structure shown.

Tests used:
Format in all cases: functional
Escherichia coli = test: Antibacterial activity against Escherichia coli ATCC 25922 in MHB medium assessed as bacterial growth inhibition by CLSI based broth microdilution method
Pseudomonas aeruginosa [1] = test: Antibacterial activity against Pseudomonas aeruginosa PAO1 in ABTGC medium assessed as bacterial growth inhibition
Klebsiella pneumoniae = test: Antibacterial activity against Klebsiella pneumoniae ATCC 700603 in MHB medium assessed as bacterial growth inhibition by CLSI based broth microdilution method
Pseudomonas aeruginosa [2] = test: Antibiofilm activity against Pseudomonas aeruginosa PAO1 in ABTGC medium assessed as biofilm biomass at MIC incubated for 24 hrs by crystal violet staining based assay relative to control
Pseudomonas aeruginosa [3] = test: Antibacterial activity against Pseudomonas aeruginosa 1121 in MHB medium assessed as bacterial growth inhibition by CLSI based broth microdilution method
Pseudomonas aeruginosa [4] = test: Antibacterial activity against Pseudomonas aeruginosa 1167 in MHB medium assessed as bacterial growth inhibition by CLSI based broth microdilution method
Pseudomonas aeruginosa [5] = test: Antibacterial activity against Pseudomonas aeruginosa FB in MHB medium assessed as bacterial growth inhibition by CLSI based broth microdilution method
Pseudomonas aeruginosa [6] = test: Antibacterial activity against Pseudomonas aeruginosa PAO1 in MHB medium assessed as bacterial growth inhibition by CLSI based broth microdilution method
Staphylococcus aureus [7] = test: Antibacterial activity against Staphylococcus aureus ATCC 25923 in MHB medium assessed as bacterial growth inhibition by CLSI based broth microdilution method
Pseudomonas aeruginosa [8] = test: Antibacterial activity against Pseudomonas aeruginosa ATCC 27853 in MHB medium assessed as bacterial growth inhibition by CLSI based broth microdilution method
Pseudomonas aeruginosa [9] = test: Antibiofilm activity against Pseudomonas aeruginosa PAO1 in ABTGC medium assessed as biofilm biomass at 1/2 times MIC incubated for 24 hrs by crystal violet staining based assay relative to control
Pseudomonas aeruginosa [10] = test: Antibiofilm activity against Pseudomonas aeruginosa PAO1 in ABTGC medium assessed as biofilm biomass at 1/4 times MIC incubated for 24 hrs by crystal violet staining based assay relative to control
Pseudomonas aeruginosa [11] = test: Antibacterial activity against Pseudomonas aeruginosa 1129 in MHB medium assessed as bacterial growth inhibition by CLSI based broth microdilution method
Staphylococcus aureus [12] = test: Antibacterial activity against methicillin-resistant Staphylococcus aureus ATCC 515992 in MHB medium assessed as bacterial growth inhibition by CLSI based broth microdilution method

Row | Structure (SMILES) | MIC (Escherichia coli) [µM] | MIC (Pseudomonas aeruginosa [1]) [µM] | MIC (Klebsiella pneumoniae) [µM] | Activity (Pseudomonas aeruginosa [2]) [%] | MIC (Pseudomonas aeruginosa [3]) [µM] | MIC (Pseudomonas aeruginosa [4]) [µM] | MIC (Pseudomonas aeruginosa [5]) [µM] | MIC (Pseudomonas aeruginosa [6]) [µM] | MIC (Staphylococcus aureus [7]) [µM] | MIC (Pseudomonas aeruginosa [8]) [µM] | Activity (Pseudomonas aeruginosa [9]) [%] | Activity (Pseudomonas aeruginosa [10]) [%] | MIC (Pseudomonas aeruginosa [11]) [µM] | MIC (Staphylococcus aureus [12]) [µM]
1 | Cc1cc(=O)c(O)cn1CCCNC(=O)CCC(=O)N1CCN(c2cc3c(cc2F)c(=O)c(C(=O)O)cn3C2CC2)CC1 | 0.42 (≈ 0.25 µg/mL) | 53.7 (≈ 32 µg/mL) | 13.4 (≈ 8 µg/mL) | 92.1 | 6.72 (≈ 4 µg/mL) | 3.36 (≈ 2 µg/mL) | 3.36 (≈ 2 µg/mL) | 3.36 (≈ 2 µg/mL) | 6.72 (≈ 4 µg/mL) | 6.72 (≈ 4 µg/mL) | 78.2 | 116.3 | 6.36 (≈ 3.79 µg/mL) | > 200
2 | Cc1cc(=O)c(O)c(CNC(=O)CCCCC(=O)N2CCN(c3cc4c(cc3F)c(=O)c(C(=O)O)cn4C3CC3)CC2)n1C | 0.05 (≈ 0.0305 µg/mL) | 13.1 (≈ 8 µg/mL) | 6.56 (≈ 4 µg/mL) | 23.3 | 3.28 (≈ 2 µg/mL) | 3.28 (≈ 2 µg/mL) | 3.28 (≈ 2 µg/mL) | 1.64 (≈ 1 µg/mL) | 13.1 (≈ 8 µg/mL) | 3.28 (≈ 2 µg/mL) | 86.3 | 27 | 6.56 (≈ 4 µg/mL) | > 200
3 | Cc1cc(=O)c(O)c(CNC(=O)CCC(CCC(=O)NCc2c(O)c(=O)cc(C)n2C)(CCC(=O)NCc2c(O)c(=O)cc(C)n2C)NC(=O)CCCCC(=O)N2CCN(c3cc4c(cc3F)c(=O)c(C(=O)O)cn4C3CC3)CC2)n1C | 0.22 (≈ 0.251 µg/mL) | 56.2 (≈ 64 µg/mL) | 14 (≈ 16 µg/mL) | 15.1 | 14 (≈ 16 µg/mL) | 7.02 (≈ 8 µg/mL) | 14 (≈ 16 µg/mL) | 3.51 (≈ 4 µg/mL) | 14 (≈ 16 µg/mL) | 7.02 (≈ 8 µg/mL) | 9.6 | 158.1 | 28.1 (≈ 32 µg/mL) | > 200
4 | Cc1cc(=O)c(O)c(CNC(=O)CCCCCCC(=O)N2CCN(c3cc4c(cc3F)c(=O)c(C(=O)O)cn4C3CC3)CC2)n1C | 6.27 (≈ 4 µg/mL) | 128 (≈ 81.6 µg/mL) | > 200 | 99.9 | > 200 | > 200 | > 200 | > 200 | 50.2 (≈ 32 µg/mL) | > 200 | 114.9 | 141.1 | > 200 | > 200
5 | Cc1cc(=O)c(O)c(CNC(=O)CCC(CCC(=O)NCc2c(O)c(=O)cc(C)n2C)(CCC(=O)NCc2c(O)c(=O)cc(C)n2C)NC(=O)CCC(=O)N2CCN(c3cc4c(cc3F)c(=O)c(C(=O)O)cn4C3CC3)CC2)n1C | 0.22 (≈ 0.244 µg/mL) | 115 (≈ 128 µg/mL) | 14.4 (≈ 16 µg/mL) | 20.7 | 28.8 (≈ 32 µg/mL) | 14.4 (≈ 16 µg/mL) | 28.8 (≈ 32 µg/mL) | 14.4 (≈ 16 µg/mL) | 14.4 (≈ 16 µg/mL) | 7.2 (≈ 8 µg/mL) | 20.9 | 211.1 | 57.6 (≈ 64 µg/mL) | > 200
6 | Cc1cc(=O)c(O)c(CNC(=O)CCC(CCC(=O)NCc2c(O)c(=O)cc(C)n2C)(CCC(=O)NCc2c(O)c(=O)cc(C)n2C)NC(=O)CCCC(=O)N2CCN(c3cc4c(cc3F)c(=O)c(C(=O)O)cn4C3CC3)CC2)n1C | 0.22 (≈ 0.248 µg/mL) | 14.2 (≈ 16 µg/mL) | 14.2 (≈ 16 µg/mL) | 12.7 | 3.55 (≈ 3.99 µg/mL) | 1.78 (≈ 2 µg/mL) | 3.55 (≈ 3.99 µg/mL) | 1.78 (≈ 2 µg/mL) | 14.2 (≈ 16 µg/mL) | 7.11 (≈ 8 µg/mL) | 79.3 | 26.1 | 7.11 (≈ 8 µg/mL) | > 200
7 | O=C(CCC(=O)N1CCN(c2cc3c(cc2F)c(=O)c(C(=O)O)cn3C2CC2)CC1)NCc1cc(=O)c(O)c[nH]1 | 0.23 (≈ 0.127 µg/mL) | 14.4 (≈ 8 µg/mL) | 14.4 (≈ 8 µg/mL) | 169.8 | 3.61 (≈ 2 µg/mL) | 3.61 (≈ 2 µg/mL) | 7.23 (≈ 4 µg/mL) | 1.81 (≈ 1 µg/mL) | 3.61 (≈ 2 µg/mL) | 7.23 (≈ 4 µg/mL) | 98.8 | 19.9 | 7.23 (≈ 4 µg/mL) | > 200
8 | Cn1cc(O)c(=O)cc1Cn1cc(CCC(=O)N2CCN(c3cc4c(cc3F)c(=O)c(C(=O)O)cn4C3CC3)CC2)nn1 | 3.38 (≈ 2 µg/mL) | > 200 | > 200 | 52.1 | 108 (≈ 64 µg/mL) | 54.1 (≈ 32 µg/mL) | 108 (≈ 64 µg/mL) | 27.1 (≈ 16 µg/mL) | > 200 | 108 (≈ 64 µg/mL) | 133.7 | 99.4 | 108 (≈ 64 µg/mL) | > 200
9 | Cn1cc(O)c(=O)cc1CNC(=O)CCC(=O)N1CCN(c2cc3c(cc2F)c(=O)c(C(=O)O)cn3C2CC2)CC1 | 0.06 (≈ 0.0341 µg/mL) | 7.05 (≈ 4 µg/mL) | 3.52 (≈ 2 µg/mL) | 55.3 | 1.76 (≈ 0.999 µg/mL) | 0.88 (≈ 0.499 µg/mL) | 1.76 (≈ 0.999 µg/mL) | 0.88 (≈ 0.499 µg/mL) | 7.05 (≈ 4 µg/mL) | 1.76 (≈ 0.999 µg/mL) | 110.3 | 29.2 | 3.52 (≈ 2 µg/mL) | > 200
10 | O=C(CCC(=O)N1CCN(c2cc3c(cc2F)c(=O)c(C(=O)O)cn3C2CC2)CC1)NCc1cc(=O)c(O)cn1O | 0.22 (≈ 0.125 µg/mL) | 14.1 (≈ 8 µg/mL) | 14.1 (≈ 8 µg/mL) | 137 | 7.02 (≈ 4 µg/mL) | 3.51 (≈ 2 µg/mL) | 7.02 (≈ 4 µg/mL) | 1.76 (≈ 1 µg/mL) | 28.1 (≈ 16 µg/mL) | 7.02 (≈ 4 µg/mL) | 54.2 | 48.9 | 7.02 (≈ 4 µg/mL) | > 200
11 | Cn1cc(O)c(=O)cc1CNC(=O)CCCCC(=O)N1CCN(c2cc3c(cc2F)c(=O)c(C(=O)O)cn3C2CC2)CC1 | 0.1 (≈ 0.0596 µg/mL) | 6.72 (≈ 4 µg/mL) | 6.72 (≈ 4 µg/mL) | 86.4 | 1.68 (≈ 1 µg/mL) | 1.68 (≈ 1 µg/mL) | 3.36 (≈ 2 µg/mL) | 0.84 (≈ 0.5 µg/mL) | 13.4 (≈ 8 µg/mL) | 3.36 (≈ 2 µg/mL) | 110.3 | 24.9 | 6.72 (≈ 4 µg/mL) | > 200
12 | Cn1cc(O)c(=O)cc1CNC(=O)CCCC(=O)N1CCN(c2cc3c(cc2F)c(=O)c(C(=O)O)cn3C2CC2)CC1 | 0.11 (≈ 0.064 µg/mL) | 13.8 (≈ 8 µg/mL) | 6.72 (≈ 3.91 µg/mL) | 75.3 | 3.44 (≈ 2 µg/mL) | 1.72 (≈ 1 µg/mL) | 3.44 (≈ 2 µg/mL) | 0.86 (≈ 0.5 µg/mL) | 13.8 (≈ 8 µg/mL) | 3.44 (≈ 2 µg/mL) | 189 | 23.4 | 6.88 (≈ 4 µg/mL) | > 200
13 | Cc1cc(=O)c(O)cn1CCCn1cc(CCC(=O)N2CCN(c3cc4c(cc3F)c(=O)c(C(=O)O)cn4C3CC3)CC2)nn1 | 51.6 (≈ 32 µg/mL) | > 200 | > 200 | 71.7 | 103 (≈ 64 µg/mL) | 103 (≈ 64 µg/mL) | 103 (≈ 64 µg/mL) | 103 (≈ 64 µg/mL) | > 200 | 103 (≈ 64 µg/mL) | 127.7 | 97.6 | 103 (≈ 64 µg/mL) | > 200
14 | Cc1cc(=O)c(O)c(CNC(=O)CCCC(=O)N2CCN(c3cc4c(cc3F)c(=O)c(C(=O)O)cn4C3CC3)CC2)n1C | 0.21 (≈ 0.125 µg/mL) | 128 (≈ 76.2 µg/mL) | 26.9 (≈ 16 µg/mL) | 39.5 | 6.72 (≈ 4 µg/mL) | 6.72 (≈ 4 µg/mL) | 13.4 (≈ 8 µg/mL) | 6.72 (≈ 4 µg/mL) | 53.7 (≈ 32 µg/mL) | 0.86 (≈ 0.512 µg/mL) | 116.8 | 84.1 | 13.4 (≈ 8 µg/mL) | > 200
